Measurements published in PubChem BioAssay AID1259407 (Chemical Carcinogenesis Research Information System (CCRIS), 2018).
Activity calls are given as the source filed them. No rule for the calls is given here.

Test system: CCRIS mutagenicity, Ames/micronucleus/aberration tests
Assay: CCRIS mutagenicity studies
[1] = Test System: AMES SALMONELLA TYPHIMURIUM, Strain/Indicator: TA100, Metabolic Activation: NONE, Method: STANDARD PLATE
[2] = Test System: AMES SALMONELLA TYPHIMURIUM, Strain/Indicator: TA97, Metabolic Activation: NONE, Method: PREINCUBATION
[3] = Test System: AMES SALMONELLA TYPHIMURIUM, Strain/Indicator: TA100, Metabolic Activation: NONE, Method: PREINCUBATION
[4] = Test System: AMES SALMONELLA TYPHIMURIUM, Strain/Indicator: TA98, Metabolic Activation: NONE, Method: STANDARD PLATE

Measured: mutagenic call

O=C(O)c1cn(C2CC2)c2cc(N3CCNCC3)c(F)cc2c1=O
inactive: End Point: In vitro micronucleus, Test System: WTK-1 human lymphoma cells, Metabolic Activation: None inactive; negative | Test System: AMES SALMONELLA TYPHIMURIUM, Strain/Indicator: HISC3076, Metabolic Activation: NONE, Method: STANDARD PLATE inactive; negative | Test System: AMES SALMONELLA TYPHIMURIUM, Strain/Indicator: HISG428, Metabolic Activation: NONE, Method: STANDARD PLATE inactive; negative | Test System: AMES SALMONELLA TYPHIMURIUM, Strain/Indicator: TA104, Metabolic Activation: NONE, Method: STANDARD PLATE inactive; negative | Test System: AMES SALMONELLA TYPHIMURIUM, Strain/Indicator: TA2661, Metabolic Activation: NONE, Method: STANDARD PLATE inactive; negative | Test System: AMES SALMONELLA TYPHIMURIUM, Strain/Indicator: TA2678, Metabolic Activation: NONE, Method: STANDARD PLATE inactive; negative
active: Test System: AMES SALMONELLA TYPHIMURIUM, Strain/Indicator: HISD3052, Metabolic Activation: NONE, Method: STANDARD PLATE active; positive | Test System: AMES SALMONELLA TYPHIMURIUM, Strain/Indicator: TA92, Metabolic Activation: NONE, Method: STANDARD PLATE active; positive | Test System: AMES SALMONELLA TYPHIMURIUM, Strain/Indicator: TA94, Metabolic Activation: NONE, Method: STANDARD PLATE active; positive | Test System: AMES SALMONELLA TYPHIMURIUM, Strain/Indicator: TA102, Metabolic Activation: NONE, Method: STANDARD PLATE active; positive | Test System: AMES SALMONELLA TYPHIMURIUM, Strain/Indicator: TA103, Metabolic Activation: NONE, Method: STANDARD PLATE active; positive | Test System: AMES SALMONELLA TYPHIMURIUM, Strain/Indicator: TA2425, Metabolic Activation: NONE, Method: STANDARD PLATE active; positive | Test System: AMES SALMONELLA TYPHIMURIUM, Strain/Indicator: TA2638, Metabolic Activation: NONE, Method: STANDARD PLATE active; positive | Test System: AMES SALMONELLA TYPHIMURIUM, Strain/Indicator: TA2662, Metabolic Activation: NONE, Method: STANDARD PLATE active; positive | Test System: CHINESE HAMSTER V-79, Strain/Indicator: V-79 (HPRT)/6-THIOGUANINE, Metabolic Activation: NONE active; positive | Test System: MOUSE LYMPHOMA, Strain/Indicator: L5178Y (TK+/TK-), Metabolic Activation: NONE, Method: FLUCTUATION TEST active; positive

CC(=O)ON(OCc1ccc(C(C)(C)C)cc1)C(=O)c1ccccc1
active: [1] active; positive

COC(=O)C1CSC2C(Cl)=C(Cl)C(=O)N12 (stereo not given)
active: [1] active; positive

Cc1ccccc1C=O
inactive: Test System: AMES SALMONELLA TYPHIMURIUM, Strain/Indicator: TA97, Metabolic Activation: HAMSTER, LIVER, S-9, AROCLOR 1254 (10 OR 30%), Method: PREINCUBATION inactive; negative | [2] inactive; negative | Test System: AMES SALMONELLA TYPHIMURIUM, Strain/Indicator: TA97, Metabolic Activation: RAT, LIVER, S-9, AROCLOR 1254 (10 OR 30%), Method: PREINCUBATION inactive; negative | Test System: AMES SALMONELLA TYPHIMURIUM, Strain/Indicator: TA98, Metabolic Activation: HAMSTER, LIVER, S-9, AROCLOR 1254 (10 OR 30%), Method: PREINCUBATION inactive; negative | Test System: AMES SALMONELLA TYPHIMURIUM, Strain/Indicator: TA98, Metabolic Activation: NONE, Method: PREINCUBATION inactive; negative | Test System: AMES SALMONELLA TYPHIMURIUM, Strain/Indicator: TA98, Metabolic Activation: RAT, LIVER, S-9, AROCLOR 1254 (10 OR 30%), Method: PREINCUBATION inactive; negative | Test System: AMES SALMONELLA TYPHIMURIUM, Strain/Indicator: TA100, Metabolic Activation: HAMSTER, LIVER, S-9, AROCLOR 1254 (10 OR 30%), Method: PREINCUBATION inactive; negative | [3] inactive; negative | Test System: AMES SALMONELLA TYPHIMURIUM, Strain/Indicator: TA100, Metabolic Activation: RAT, LIVER, S-9, AROCLOR 1254 (10 OR 30%), Method: PREINCUBATION inactive; negative | Test System: AMES SALMONELLA TYPHIMURIUM, Strain/Indicator: TA1535, Metabolic Activation: HAMSTER, LIVER, S-9, AROCLOR 1254 (10 OR 30%), Method: PREINCUBATION inactive; negative | Test System: AMES SALMONELLA TYPHIMURIUM, Strain/Indicator: TA1535, Metabolic Activation: NONE, Method: PREINCUBATION inactive; negative | Test System: AMES SALMONELLA TYPHIMURIUM, Strain/Indicator: TA1535, Metabolic Activation: RAT, LIVER, S-9, AROCLOR 1254 (10 OR 30%), Method: PREINCUBATION inactive; negative | Test System: AMES SALMONELLA TYPHIMURIUM, Strain/Indicator: TA1537, Metabolic Activation: HAMSTER, LIVER, S-9, AROCLOR 1254 (10 OR 30%), Method: PREINCUBATION inactive; negative | Test System: AMES SALMONELLA TYPHIMURIUM, Strain/Indicator: TA1537, Metabolic Activation: NONE, Method: PREINCUBATION inactive; negative | Test System: AMES SALMONELLA TYPHIMURIUM, Strain/Indicator: TA1537, Metabolic Activation: RAT, LIVER, S-9, AROCLOR 1254 (10%), Method: PREINCUBATION inactive; negative

Nc1c(S(=O)(=O)O)cc(Nc2cccc(S(=O)(=O)CCOS(=O)(=O)O)c2)c2c1C(=O)c1ccccc1C2=O
active: Test System: MOUSE LYMPHOMA, Strain/Indicator: L5178Y (TK+/TK-), Metabolic Activation: NONE, Method: SUSPENSION/PLATE active; positive

CC/C=C/C=C/C=C/C=C/C=C\OC[C@@H](O)CO
active: [3] active; positive | Test System: AMES SALMONELLA TYPHIMURIUM, Strain/Indicator: TA100, Metabolic Activation: RAT, LIVER, S-9, AROCLOR 1254, Method: PREINCUBATION active; positive

CCCC(=O)OCCC(C)C
inactive: [2] inactive; negative | Test System: AMES SALMONELLA TYPHIMURIUM, Strain/Indicator: TA97, Metabolic Activation: RAT, LIVER, S-9, AROCLOR 1254, Method: PREINCUBATION inactive; negative | Test System: AMES SALMONELLA TYPHIMURIUM, Strain/Indicator: TA102, Metabolic Activation: NONE, Method: PREINCUBATION inactive; negative | Test System: AMES SALMONELLA TYPHIMURIUM, Strain/Indicator: TA102, Metabolic Activation: RAT, LIVER, S-9, AROCLOR 1254, Method: PREINCUBATION inactive; negative

O=C(c1ccccc1)[C@@H]1O[C@@H]1c1ccc(Br)cc1
inactive: [4] inactive; negative | Test System: AMES SALMONELLA TYPHIMURIUM, Strain/Indicator: TA98, Metabolic Activation: RAT, LIVER, S-9, AROCLOR 1254, Method: STANDARD PLATE inactive; negative | [1] inactive; negative | Test System: AMES SALMONELLA TYPHIMURIUM, Strain/Indicator: TA100, Metabolic Activation: RAT, LIVER, S-9, AROCLOR 1254, Method: STANDARD PLATE inactive; negative

COc1cccc2c(NCCCNCCCl)c3ccccc3nc12
active: [4] active; positive | [1] active; positive | Test System: AMES SALMONELLA TYPHIMURIUM, Strain/Indicator: TA1536, Metabolic Activation: NONE, Method: STANDARD PLATE active; positive | Test System: AMES SALMONELLA TYPHIMURIUM, Strain/Indicator: TA1537, Metabolic Activation: NONE, Method: STANDARD PLATE active; positive | Test System: AMES SALMONELLA TYPHIMURIUM, Strain/Indicator: TA1538, Metabolic Activation: NONE, Method: STANDARD PLATE active; positive
inactive: Test System: AMES SALMONELLA TYPHIMURIUM, Strain/Indicator: TA1535, Metabolic Activation: NONE, Method: STANDARD PLATE inactive; negative
